The values that follow come from patent publication US20230149540A1, “VACCINE PLATFORM FOR THE INDUCTION OF SYSTEMIC IMMUNE RESPONSES” (The Board of Trustees of the Leland Stanford Junior …, priority 2020, published 2023).

Test [1] relates to human MAIT cells. In words: In vitro MAIT cell activation, IFN-γ secretion (FIG. 7). It counts as cell-based. Conditions: stimulated for 18 h. The protocol:
(§1) FIG. 7. In vitro exposure of human or rhesus macaque MAIT cells to their cognate antigen (5-OP-RU) (a highly unstable molecule) or microspheres loaded with 5-OP-RU-loaded MR-1 monomer induced IFN-γ secretion. Representative pseudocolor plots shown are gated on live CD8^+ T cells. Human and rhesus macaque cells were stimulated for 18 h.
(§2) Activation of innate-like T cells and effector memory T cells can be achieved by presentation of their antigen in the context of the appropriate MHC molecule. Streptavidin-coated microspheres were linked to biotinylated monomers of CD1d (type I NKT cells) or MR1 (MAIT cells) to test for induction of activation of these innate-like T cells. […] We then performed an experiment in which mice were intravenously administrated CABs loaded with αGC (positive control), which would induce the expansion of NKT cells, CD1d-αGC-coated microspheres (test group), or were left untreated (negative control) (FIG. 8).

Test [2] relates to rhesus macaque MAIT cells. The test is described as above. Type of test: cell-based. Conditions: stimulated for 18 h. The protocol: as §1, §2

`CC(=O)C=Nc1c(NC[C@H](O)[C@H](O)[C@H](O)CO)[nH]c(=O)[nH]c1=O` [5-OP-RU]: the “secretion of IFN-γ by MAIT cells” value in test [1] and in test [2] was “induce secretion of IFN-γ to a similar extent” throughout.
